Results as given in the NIST ThermoML archive (doi:10.1016/j.jct.2014.06.004).
± gives the expanded uncertainty stated by the source.

Experiment: xn = mol fraction of the nth substance listed
Conditions: 100 kPa, Liquid; for speed of sound: Frequency=3 MHz, Sing-around technique in a fixed-path interferometer; for mass density: Vibrating tube method

Structure (SMILES): CCCCCCC(=O)O [heptanoic acid] + CCCC(=O)O
- speed of sound (293.15 K, x1 = 0.0559): 1203 ± 2 m/s
- speed of sound (293.15 K, x1 = 0.1059): 1209 ± 2 m/s
- speed of sound (293.15 K, x1 = 0.2061): 1222 ± 2 m/s
- speed of sound (293.15 K, x1 = 0.3087): 1233 ± 2 m/s
- speed of sound (293.15 K, x1 = 0.4037): 1244 ± 2 m/s
- speed of sound (293.15 K, x1 = 0.5037): 1254 ± 2 m/s
- speed of sound (293.15 K, x1 = 0.6006): 1263 ± 2 m/s
- speed of sound (293.15 K, x1 = 0.7049): 1272 ± 2 m/s
- speed of sound (293.15 K, x1 = 0.805): 1280 ± 2 m/s
- speed of sound (293.15 K, x1 = 0.9052): 1289 ± 2 m/s
- speed of sound (293.15 K, x1 = 0.9575): 1292 ± 2 m/s
- speed of sound (293.15 K, x1 = 1): 1295 ± 2 m/s
- mass density (293.15 K, x1 = 0.0559): 954.2 ± 0.3 kg/m3
- mass density (293.15 K, x1 = 0.1059): 951.3 ± 0.3 kg/m3
- mass density (293.15 K, x1 = 0.2061): 945.8 ± 0.3 kg/m3
- mass density (293.15 K, x1 = 0.3087): 940.8 ± 0.3 kg/m3
- mass density (293.15 K, x1 = 0.4037): 936.7 ± 0.3 kg/m3
- mass density (293.15 K, x1 = 0.5037): 932.7 ± 0.3 kg/m3
- mass density (293.15 K, x1 = 0.6006): 929.2 ± 0.3 kg/m3
- mass density (293.15 K, x1 = 0.7049): 925.8 ± 0.3 kg/m3
- mass density (293.15 K, x1 = 0.805): 922.8 ± 0.3 kg/m3
- mass density (293.15 K, x1 = 0.9052): 920.1 ± 0.3 kg/m3
- mass density (293.15 K, x1 = 0.9575): 918.7 ± 0.3 kg/m3
- mass density (293.15 K, x1 = 1): 917.7 ± 0.3 kg/m3
- speed of sound (298.15 K, x1 = 0.0559): 1185 ± 2 m/s
- speed of sound (298.15 K, x1 = 0.1059): 1191 ± 2 m/s
- speed of sound (298.15 K, x1 = 0.2061): 1203 ± 2 m/s
- speed of sound (298.15 K, x1 = 0.3087): 1215 ± 2 m/s
- speed of sound (298.15 K, x1 = 0.4037): 1225 ± 2 m/s
- speed of sound (298.15 K, x1 = 0.5037): 1236 ± 2 m/s
- speed of sound (298.15 K, x1 = 0.6006): 1245 ± 2 m/s
- speed of sound (298.15 K, x1 = 0.7049): 1254 ± 2 m/s
- speed of sound (298.15 K, x1 = 0.805): 1263 ± 2 m/s
- speed of sound (298.15 K, x1 = 0.9052): 1271 ± 2 m/s
- speed of sound (298.15 K, x1 = 0.9575): 1275 ± 2 m/s
- speed of sound (298.15 K, x1 = 1): 1278 ± 2 m/s
- mass density (298.15 K, x1 = 0.0559): 949.3 ± 0.3 kg/m3
- mass density (298.15 K, x1 = 0.1059): 946.4 ± 0.3 kg/m3
- mass density (298.15 K, x1 = 0.2061): 941 ± 0.3 kg/m3
- mass density (298.15 K, x1 = 0.3087): 936.2 ± 0.3 kg/m3
- mass density (298.15 K, x1 = 0.4037): 932.1 ± 0.3 kg/m3
- mass density (298.15 K, x1 = 0.5037): 928.2 ± 0.3 kg/m3
- mass density (298.15 K, x1 = 0.6006): 924.8 ± 0.3 kg/m3
- mass density (298.15 K, x1 = 0.7049): 921.5 ± 0.3 kg/m3
- mass density (298.15 K, x1 = 0.805): 918.5 ± 0.3 kg/m3
- mass density (298.15 K, x1 = 0.9052): 915.9 ± 0.3 kg/m3
- mass density (298.15 K, x1 = 0.9575): 914.5 ± 0.3 kg/m3
- mass density (298.15 K, x1 = 1): 913.5 ± 0.3 kg/m3
- speed of sound (303.15 K, x1 = 0.0559): 1166 ± 2 m/s
- speed of sound (303.15 K, x1 = 0.1059): 1172 ± 2 m/s
- speed of sound (303.15 K, x1 = 0.2061): 1185 ± 2 m/s
- speed of sound (303.15 K, x1 = 0.3087): 1197 ± 2 m/s
- speed of sound (303.15 K, x1 = 0.4037): 1207 ± 2 m/s
- speed of sound (303.15 K, x1 = 0.5037): 1217 ± 2 m/s
- speed of sound (303.15 K, x1 = 0.6006): 1227 ± 2 m/s
- speed of sound (303.15 K, x1 = 0.7049): 1236 ± 2 m/s
- speed of sound (303.15 K, x1 = 0.805): 1245 ± 2 m/s
- speed of sound (303.15 K, x1 = 0.9052): 1253 ± 2 m/s
- speed of sound (303.15 K, x1 = 0.9575): 1257 ± 2 m/s
- speed of sound (303.15 K, x1 = 1): 1260 ± 2 m/s
- mass density (303.15 K, x1 = 0.0559): 944.4 ± 0.3 kg/m3
- mass density (303.15 K, x1 = 0.1059): 941.6 ± 0.3 kg/m3
- mass density (303.15 K, x1 = 0.2061): 936.3 ± 0.3 kg/m3
- mass density (303.15 K, x1 = 0.3087): 931.5 ± 0.3 kg/m3
- mass density (303.15 K, x1 = 0.4037): 927.6 ± 0.3 kg/m3
- mass density (303.15 K, x1 = 0.5037): 923.8 ± 0.3 kg/m3
- mass density (303.15 K, x1 = 0.6006): 920.4 ± 0.3 kg/m3
- mass density (303.15 K, x1 = 0.7049): 917.1 ± 0.3 kg/m3
- mass density (303.15 K, x1 = 0.805): 914.2 ± 0.3 kg/m3
- mass density (303.15 K, x1 = 0.9052): 911.6 ± 0.3 kg/m3
- mass density (303.15 K, x1 = 0.9575): 910.3 ± 0.3 kg/m3
- mass density (303.15 K, x1 = 1): 909.3 ± 0.3 kg/m3
- speed of sound (308.15 K, x1 = 0.0559): 1147 ± 2 m/s
- speed of sound (308.15 K, x1 = 0.1059): 1154 ± 2 m/s
- speed of sound (308.15 K, x1 = 0.2061): 1167 ± 2 m/s
- speed of sound (308.15 K, x1 = 0.3087): 1179 ± 2 m/s
- speed of sound (308.15 K, x1 = 0.4037): 1189 ± 2 m/s
- speed of sound (308.15 K, x1 = 0.5037): 1199 ± 2 m/s
- speed of sound (308.15 K, x1 = 0.6006): 1209 ± 2 m/s
- speed of sound (308.15 K, x1 = 0.7049): 1218 ± 2 m/s
- speed of sound (308.15 K, x1 = 0.805): 1227 ± 2 m/s
- speed of sound (308.15 K, x1 = 0.9052): 1235 ± 2 m/s
- speed of sound (308.15 K, x1 = 0.9575): 1239 ± 2 m/s
- speed of sound (308.15 K, x1 = 1): 1242 ± 2 m/s
- mass density (308.15 K, x1 = 0.0559): 939.5 ± 0.3 kg/m3
- mass density (308.15 K, x1 = 0.1059): 936.7 ± 0.3 kg/m3
- mass density (308.15 K, x1 = 0.2061): 931.5 ± 0.3 kg/m3
- mass density (308.15 K, x1 = 0.3087): 926.9 ± 0.3 kg/m3
- mass density (308.15 K, x1 = 0.4037): 923 ± 0.3 kg/m3
- mass density (308.15 K, x1 = 0.5037): 919.3 ± 0.3 kg/m3
